In the supplement of paper PMC12076712 one finds pIC50 data, which are given here for six compounds.

Test in all cases: pIC50, kinobeads binding competition
The target in assay [1] is INSR (UniProt P06213). In short, it runs like this: (§1)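 Either living Jurkat cells (60 min at 37 °C, then lysis) or lysates (60 min at 4 °C) were treated with nine compound concentrations from a top of 30 μM, in 1:4 steps for cells and 1:5 steps for lysates. The lysates were from Jurkat cells or a 1:1:1:1 mix of HEK293, K-562, HepG2 and placenta. Kinobeads-bound proteins were digested and quantified by TMT10 LC-MS/MS. pIC50 was calculated by logistic dose-response fitting (R drc package) of fold changes relative to vehicle, in biological duplicates.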

Assay [2] deals with T1, BRSK2 (UniProt Q8IWQ3).
T1 sequence (whole entry): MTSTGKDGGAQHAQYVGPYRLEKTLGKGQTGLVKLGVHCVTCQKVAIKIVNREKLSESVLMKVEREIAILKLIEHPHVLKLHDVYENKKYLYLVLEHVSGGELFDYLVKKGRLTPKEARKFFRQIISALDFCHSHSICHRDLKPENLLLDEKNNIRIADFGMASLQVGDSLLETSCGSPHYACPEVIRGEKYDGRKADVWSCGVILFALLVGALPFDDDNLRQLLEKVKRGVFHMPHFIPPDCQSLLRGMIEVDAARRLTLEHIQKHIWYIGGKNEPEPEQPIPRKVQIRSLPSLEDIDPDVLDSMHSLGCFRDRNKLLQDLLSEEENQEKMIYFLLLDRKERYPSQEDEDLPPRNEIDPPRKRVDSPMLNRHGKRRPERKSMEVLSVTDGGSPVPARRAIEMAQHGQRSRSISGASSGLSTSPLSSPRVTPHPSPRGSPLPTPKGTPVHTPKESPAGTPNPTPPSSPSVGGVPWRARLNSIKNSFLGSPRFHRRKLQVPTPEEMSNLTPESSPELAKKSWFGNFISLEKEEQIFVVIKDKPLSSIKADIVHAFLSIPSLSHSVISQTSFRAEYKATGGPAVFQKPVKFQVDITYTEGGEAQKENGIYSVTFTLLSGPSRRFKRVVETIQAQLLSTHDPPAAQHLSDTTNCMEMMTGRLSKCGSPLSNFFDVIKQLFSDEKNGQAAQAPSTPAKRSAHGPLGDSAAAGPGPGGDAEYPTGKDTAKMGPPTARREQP
The method in brief: as §1

Assay [3] has as its target T2, UniProt Q13043.
T2 sequence (whole entry): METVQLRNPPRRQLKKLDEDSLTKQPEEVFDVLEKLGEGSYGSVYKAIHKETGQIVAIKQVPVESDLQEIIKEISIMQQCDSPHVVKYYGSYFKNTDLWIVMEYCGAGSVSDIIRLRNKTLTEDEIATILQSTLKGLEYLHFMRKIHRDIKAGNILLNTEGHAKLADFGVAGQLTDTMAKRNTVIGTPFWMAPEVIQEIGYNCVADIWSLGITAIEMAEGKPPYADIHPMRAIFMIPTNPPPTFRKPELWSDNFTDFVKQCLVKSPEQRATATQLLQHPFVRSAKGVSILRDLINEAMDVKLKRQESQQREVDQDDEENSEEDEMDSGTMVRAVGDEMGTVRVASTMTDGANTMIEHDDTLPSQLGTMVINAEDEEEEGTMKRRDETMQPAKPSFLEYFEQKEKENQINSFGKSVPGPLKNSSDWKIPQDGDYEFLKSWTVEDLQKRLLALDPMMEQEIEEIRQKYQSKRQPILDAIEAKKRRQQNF
In short, it runs like this:
as §1

The target in assay [4] is T3, UniProt Q9UEE5.
T3 sequence (whole entry): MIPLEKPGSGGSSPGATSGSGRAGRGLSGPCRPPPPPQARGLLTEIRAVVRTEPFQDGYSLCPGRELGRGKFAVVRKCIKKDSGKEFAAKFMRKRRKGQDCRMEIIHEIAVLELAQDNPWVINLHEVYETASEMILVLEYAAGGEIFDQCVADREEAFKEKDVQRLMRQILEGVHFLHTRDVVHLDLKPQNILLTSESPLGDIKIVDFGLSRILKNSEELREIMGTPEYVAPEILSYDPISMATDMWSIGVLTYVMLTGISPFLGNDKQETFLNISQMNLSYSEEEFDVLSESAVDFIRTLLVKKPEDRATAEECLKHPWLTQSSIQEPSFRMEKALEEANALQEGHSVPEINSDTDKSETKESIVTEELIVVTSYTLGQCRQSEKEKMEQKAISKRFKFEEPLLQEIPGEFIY
The method in brief: as §1

The target of assay [5] is UniProt Q14289. The method in brief: as §1
For assay [6], the target named is UniProt O75582. In short, it runs like this: as §1
Assay [7] has as its target T4, UniProt O14757.
T4 sequence (whole entry): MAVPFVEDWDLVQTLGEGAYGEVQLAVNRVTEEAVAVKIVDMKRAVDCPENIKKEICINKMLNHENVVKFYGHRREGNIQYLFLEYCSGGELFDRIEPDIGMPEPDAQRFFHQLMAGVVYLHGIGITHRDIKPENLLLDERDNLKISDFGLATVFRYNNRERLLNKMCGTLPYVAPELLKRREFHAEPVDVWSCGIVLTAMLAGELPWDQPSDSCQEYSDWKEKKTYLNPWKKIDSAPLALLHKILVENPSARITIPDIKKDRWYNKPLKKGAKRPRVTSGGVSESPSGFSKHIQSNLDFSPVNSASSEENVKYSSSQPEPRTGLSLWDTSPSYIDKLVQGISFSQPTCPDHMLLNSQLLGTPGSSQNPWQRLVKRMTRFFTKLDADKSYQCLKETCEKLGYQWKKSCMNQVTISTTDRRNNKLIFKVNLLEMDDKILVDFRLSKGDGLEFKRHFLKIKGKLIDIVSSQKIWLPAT
The method in brief: as §1

Assay [8] has as its target UniProt Q07912. In short, it runs like this:
as §1

Assay [9] deals with EPHA2 (UniProt P29317). Particulars: cell material: Lysate mix. In short, it runs like this: as §1
The target in assay [10] is UniProt Q8N4C8. The method in brief:
as §1

Molecules are shown by their SMILES.

Sequence of UniProt Q07912 (Q07912 whole entry, looked up): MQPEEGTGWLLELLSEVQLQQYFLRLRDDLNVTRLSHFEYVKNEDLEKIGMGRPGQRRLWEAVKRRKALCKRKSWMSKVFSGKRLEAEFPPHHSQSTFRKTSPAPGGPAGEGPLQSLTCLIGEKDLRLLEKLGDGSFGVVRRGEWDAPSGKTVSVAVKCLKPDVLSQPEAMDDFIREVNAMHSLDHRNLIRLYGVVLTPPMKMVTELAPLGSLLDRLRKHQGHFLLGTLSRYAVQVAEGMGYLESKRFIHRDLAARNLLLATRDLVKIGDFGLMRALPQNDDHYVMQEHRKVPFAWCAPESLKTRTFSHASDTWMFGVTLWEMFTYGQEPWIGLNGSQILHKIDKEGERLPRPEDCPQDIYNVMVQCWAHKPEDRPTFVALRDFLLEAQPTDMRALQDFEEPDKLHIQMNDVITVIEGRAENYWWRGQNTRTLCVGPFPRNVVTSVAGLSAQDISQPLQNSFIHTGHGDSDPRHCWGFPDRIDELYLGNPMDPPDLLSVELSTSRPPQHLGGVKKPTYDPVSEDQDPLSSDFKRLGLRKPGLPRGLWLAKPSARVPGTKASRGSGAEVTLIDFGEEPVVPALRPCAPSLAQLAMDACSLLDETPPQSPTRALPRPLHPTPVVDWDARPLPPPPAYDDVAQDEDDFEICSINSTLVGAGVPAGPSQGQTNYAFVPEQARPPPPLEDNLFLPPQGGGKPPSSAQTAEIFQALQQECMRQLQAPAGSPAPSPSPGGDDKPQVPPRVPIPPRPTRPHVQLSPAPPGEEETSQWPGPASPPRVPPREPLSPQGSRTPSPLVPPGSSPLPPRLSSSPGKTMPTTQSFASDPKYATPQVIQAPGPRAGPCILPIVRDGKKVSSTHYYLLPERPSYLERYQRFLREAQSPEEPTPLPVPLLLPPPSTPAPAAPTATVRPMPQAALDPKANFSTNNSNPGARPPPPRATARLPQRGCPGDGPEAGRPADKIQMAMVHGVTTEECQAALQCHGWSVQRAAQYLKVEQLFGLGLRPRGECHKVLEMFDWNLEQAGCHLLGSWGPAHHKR
Sequence of UniProt O75582 (O75582 whole entry, looked up): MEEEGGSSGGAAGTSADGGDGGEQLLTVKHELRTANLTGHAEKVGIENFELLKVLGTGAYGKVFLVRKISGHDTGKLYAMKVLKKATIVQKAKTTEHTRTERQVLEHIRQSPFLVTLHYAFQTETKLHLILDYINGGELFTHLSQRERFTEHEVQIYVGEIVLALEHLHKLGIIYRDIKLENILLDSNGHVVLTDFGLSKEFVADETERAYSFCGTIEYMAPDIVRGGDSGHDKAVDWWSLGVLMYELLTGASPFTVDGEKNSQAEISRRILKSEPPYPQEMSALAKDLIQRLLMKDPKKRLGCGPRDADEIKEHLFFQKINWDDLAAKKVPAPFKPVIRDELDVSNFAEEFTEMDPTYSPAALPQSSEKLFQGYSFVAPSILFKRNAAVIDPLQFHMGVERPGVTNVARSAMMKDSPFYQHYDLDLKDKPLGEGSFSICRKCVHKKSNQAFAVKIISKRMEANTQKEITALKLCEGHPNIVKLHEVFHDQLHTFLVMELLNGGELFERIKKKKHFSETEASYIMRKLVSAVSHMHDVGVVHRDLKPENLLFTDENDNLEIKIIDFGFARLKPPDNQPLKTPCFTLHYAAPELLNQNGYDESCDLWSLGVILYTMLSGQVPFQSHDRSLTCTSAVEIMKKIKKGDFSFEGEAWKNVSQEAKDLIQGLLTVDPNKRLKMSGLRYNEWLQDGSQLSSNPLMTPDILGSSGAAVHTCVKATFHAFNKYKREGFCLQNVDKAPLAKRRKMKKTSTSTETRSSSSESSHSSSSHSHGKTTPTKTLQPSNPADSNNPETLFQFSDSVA
Sequence of UniProt Q14289 (Q14289 whole entry, looked up): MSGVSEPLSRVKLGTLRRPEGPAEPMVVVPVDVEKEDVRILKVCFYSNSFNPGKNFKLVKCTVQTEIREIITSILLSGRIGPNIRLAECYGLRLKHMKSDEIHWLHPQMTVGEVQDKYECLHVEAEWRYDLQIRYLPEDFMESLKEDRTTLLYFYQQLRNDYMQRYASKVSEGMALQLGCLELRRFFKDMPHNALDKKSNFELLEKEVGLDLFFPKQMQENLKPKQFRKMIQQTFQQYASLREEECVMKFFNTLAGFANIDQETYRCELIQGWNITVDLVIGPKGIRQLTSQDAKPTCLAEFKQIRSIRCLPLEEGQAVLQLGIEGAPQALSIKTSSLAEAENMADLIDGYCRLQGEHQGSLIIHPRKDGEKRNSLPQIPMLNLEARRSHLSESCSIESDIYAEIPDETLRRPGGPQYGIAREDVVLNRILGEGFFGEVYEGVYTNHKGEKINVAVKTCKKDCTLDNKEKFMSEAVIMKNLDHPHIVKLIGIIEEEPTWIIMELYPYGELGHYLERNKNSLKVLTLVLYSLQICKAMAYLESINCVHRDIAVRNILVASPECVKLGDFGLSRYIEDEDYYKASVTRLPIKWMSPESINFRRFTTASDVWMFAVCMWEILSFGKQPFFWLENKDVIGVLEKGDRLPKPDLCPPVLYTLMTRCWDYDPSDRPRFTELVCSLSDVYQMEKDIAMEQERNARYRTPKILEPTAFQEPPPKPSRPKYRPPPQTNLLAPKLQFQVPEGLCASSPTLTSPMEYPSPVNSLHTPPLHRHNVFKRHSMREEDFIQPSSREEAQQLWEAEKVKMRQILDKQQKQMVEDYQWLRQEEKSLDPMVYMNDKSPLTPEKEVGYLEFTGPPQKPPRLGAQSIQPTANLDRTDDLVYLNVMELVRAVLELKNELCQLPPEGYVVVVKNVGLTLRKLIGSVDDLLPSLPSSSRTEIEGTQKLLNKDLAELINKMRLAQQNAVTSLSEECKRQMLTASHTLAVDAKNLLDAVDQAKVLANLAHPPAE
Sequence of INSR (P06213 whole entry): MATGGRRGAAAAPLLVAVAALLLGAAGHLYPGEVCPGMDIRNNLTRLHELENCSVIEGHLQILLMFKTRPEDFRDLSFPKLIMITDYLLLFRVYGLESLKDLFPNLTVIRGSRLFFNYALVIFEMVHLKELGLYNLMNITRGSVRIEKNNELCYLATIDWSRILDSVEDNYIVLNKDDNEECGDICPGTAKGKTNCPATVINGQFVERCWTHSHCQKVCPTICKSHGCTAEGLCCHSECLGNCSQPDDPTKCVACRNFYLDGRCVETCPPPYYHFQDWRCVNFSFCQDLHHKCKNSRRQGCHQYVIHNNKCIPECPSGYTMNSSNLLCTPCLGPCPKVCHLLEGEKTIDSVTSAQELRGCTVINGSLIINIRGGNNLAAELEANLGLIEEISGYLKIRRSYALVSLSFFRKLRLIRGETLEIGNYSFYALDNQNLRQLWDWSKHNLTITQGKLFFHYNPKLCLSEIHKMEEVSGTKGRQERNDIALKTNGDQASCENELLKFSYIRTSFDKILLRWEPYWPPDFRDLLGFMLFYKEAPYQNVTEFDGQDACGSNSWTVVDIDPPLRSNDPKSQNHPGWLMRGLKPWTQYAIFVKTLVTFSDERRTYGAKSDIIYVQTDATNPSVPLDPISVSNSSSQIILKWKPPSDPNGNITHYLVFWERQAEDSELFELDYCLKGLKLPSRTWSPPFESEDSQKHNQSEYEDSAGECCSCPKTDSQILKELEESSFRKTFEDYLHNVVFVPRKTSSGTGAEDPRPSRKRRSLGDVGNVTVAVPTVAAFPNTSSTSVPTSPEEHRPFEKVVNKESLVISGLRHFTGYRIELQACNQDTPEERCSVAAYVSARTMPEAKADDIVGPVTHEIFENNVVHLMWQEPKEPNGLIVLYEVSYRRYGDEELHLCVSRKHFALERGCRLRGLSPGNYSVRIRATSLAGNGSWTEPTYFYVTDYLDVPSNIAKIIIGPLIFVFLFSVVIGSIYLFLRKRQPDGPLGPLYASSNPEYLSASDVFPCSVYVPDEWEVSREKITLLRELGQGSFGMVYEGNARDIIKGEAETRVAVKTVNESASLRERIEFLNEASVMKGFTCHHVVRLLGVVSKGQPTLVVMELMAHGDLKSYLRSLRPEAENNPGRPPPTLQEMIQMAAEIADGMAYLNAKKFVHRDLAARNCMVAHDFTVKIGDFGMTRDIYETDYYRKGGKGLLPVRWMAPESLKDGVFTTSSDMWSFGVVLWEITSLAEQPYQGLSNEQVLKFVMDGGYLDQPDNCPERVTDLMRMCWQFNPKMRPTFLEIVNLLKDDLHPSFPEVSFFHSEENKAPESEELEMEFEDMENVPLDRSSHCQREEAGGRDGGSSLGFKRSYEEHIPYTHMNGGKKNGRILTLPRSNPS

Consider `C#CCNC(=O)c1cc(Nc2cc(C)[nH]n2)nc(N2CCN(Cc3ccc(S(=O)(=O)F)cc3)CC2)n1`, for which the negative-log IC50 (pIC50) was less than 4.52 in [1] (cell material: Lysate mix); less than 4.52 in assay [2] (cell material: Lysate mix); 5.98 in assay [3] (cell material: Lysate mix); less than 4.52 in assay [4] (cell material: Lysate mix); less than 4.52 in assay [5] (cell material: Lysate mix); 5.11 in assay [6] (cell material: Lysate mix). In addition, the pIC50 in assay [7] (cell material: Lysate mix), in [8] (cell material: Lysate mix), in [9] and in assay [10] (cell material: Lysate mix) was less than 4.52 in each case.

For the compound `O=C(NCCNC(=O)c1cc(Nc2cc(C3CC3)[nH]n2)nc(N2CCN(Cc3ccc(S(=O)(=O)F)cc3)CC2)n1)OC1CC/C=C/CCC1` (stereo not given), the pIC50 in [1] (cell material: Jurkat cells) is less than 4.52; in assay [1] (cell material: Jurkat lysate), less than 4.52; in assay [1] (cell material: Lysate mix), less than 4.52; in assay [2] (cell material: Jurkat cells), 5.93; in assay [2] (cell material: Jurkat lysate), less than 4.52; in [2] (cell material: Lysate mix) it was less than 4.52. For the same compound, the pIC50 in assay [3] (cell material: Jurkat cells) is 5.98; in assay [3] (cell material: Jurkat lysate) it was 4.72; in assay [3] (cell material: Lysate mix) it was 4.99; in [4] (cell material: Jurkat lysate), less than 4.52; in assay [4] (cell material: Lysate mix), less than 4.52; in [5] (cell material: Jurkat cells) it was 4.98. Moreover, the pIC50 in [5] (cell material: Jurkat lysate) was less than 4.52; in [5] (cell material: Lysate mix), less than 4.52; in [6] (cell material: Jurkat cells), 5.6; in assay [6] (cell material: Jurkat lysate), less than 4.52; in assay [6] (cell material: Lysate mix) it was less than 4.52; in [7] (cell material: Jurkat cells), less than 4.52. Moreover, the negative logarithm of the IC50 (pIC50) in [7] (cell material: Jurkat lysate), in assay [7] (cell material: Lysate mix), in assay [8] (cell material: Jurkat cells), in assay [8] (cell material: Jurkat lysate), in assay [8] (cell material: Lysate mix) and in [9] was less than 4.52 in each case. Also, the values for the pIC50 in assay [10] (cell material: Jurkat cells), in assay [10] (cell material: Jurkat lysate) and in assay [10] (cell material: Lysate mix) were 5.12, less than 4.52 and less than 4.52, respectively.

As to `CCNC(=O)c1cc(Nc2cc(C3CC3)[nH]n2)nc(N2CCN(Cc3ccc(S(=O)(=O)F)cc3)CC2)n1`, the negative logarithm of the IC50 (pIC50) was less than 4.52 in assay [1] (cell material: Lysate mix); less than 4.52 in [2] (cell material: Lysate mix); 6.06 in assay [3] (cell material: Lysate mix); less than 4.52 in assay [4] (cell material: Lysate mix); less than 4.52 in assay [5] (cell material: Lysate mix); 5.35 in assay [6] (cell material: Lysate mix). The pIC50 in assay [7] (cell material: Lysate mix), in [8] (cell material: Lysate mix), in assay [9] and in assay [10] (cell material: Lysate mix) was less than 4.52 throughout.

As for `Cc1cc(Nc2cc(C(=O)NCCNC(=O)OC3CC/C=C/CCC3)nc(N3CCN(Cc4ccc(S(=O)(=O)F)cc4)CC3)n2)n[nH]1` (stereo not given), the pIC50 is less than 4.52 in assay [1] (cell material: Lysate mix); less than 4.52 in assay [2] (cell material: Lysate mix); 4.74 in assay [3] (cell material: Lysate mix); less than 4.52 in [4] (cell material: Lysate mix); less than 4.52 in [5] (cell material: Lysate mix); less than 4.52 in assay [6] (cell material: Lysate mix). For the same compound, the pIC50 in [7] (cell material: Lysate mix), in assay [8] (cell material: Lysate mix), in assay [9] and in [10] (cell material: Lysate mix) was less than 4.52 in each case.

As to `CCNC(=O)c1cc(Nc2cc(C)[nH]n2)nc(N2CCN(Cc3ccc(S(=O)(=O)F)cc3)CC2)n1`, the pIC50 in [1] (cell material: Lysate mix) is less than 4.52; in [2] (cell material: Lysate mix), less than 4.52; in assay [3] (cell material: Lysate mix), 5.8; in assay [4] (cell material: Lysate mix) it was less than 4.52; in assay [5] (cell material: Lysate mix), less than 4.52; in [6] (cell material: Lysate mix), 4.83. Further, the negative logarithm of the IC50 (pIC50) in assay [7] (cell material: Lysate mix), in [8] (cell material: Lysate mix), in [9] and in assay [10] (cell material: Lysate mix) was less than 4.52 each time.

For `C#CCNC(=O)c1cc(Nc2cc(C3CC3)[nH]n2)nc(N2CCN(Cc3ccc(S(=O)(=O)F)cc3)CC2)n1`, the negative-log IC50 (pIC50) was 4.82 in assay [1] (cell material: Jurkat cells); less than 4.52 in assay [1] (cell material: Jurkat lysate); less than 4.52 in assay [1] (cell material: Lysate mix); 6.54 in assay [2] (cell material: Jurkat cells); less than 4.52 in assay [2] (cell material: Jurkat lysate); 4.84 in assay [2] (cell material: Lysate mix). The pIC50 in [3] (cell material: Jurkat cells) is 6.35; in assay [3] (cell material: Jurkat lysate) it was 5.89; in assay [3] (cell material: Lysate mix), 6.8; in [4] (cell material: Jurkat cells) it was 5.42; in assay [4] (cell material: Jurkat lysate), less than 4.52; in [4] (cell material: Lysate mix) it was less than 4.52. In addition, the pIC50 in [5] (cell material: Jurkat cells) is 5.98; in assay [5] (cell material: Jurkat lysate) it was less than 4.52; in assay [5] (cell material: Lysate mix), less than 4.52; in assay [6] (cell material: Jurkat cells), 6; in assay [6] (cell material: Jurkat lysate) it was 4.7; in assay [6] (cell material: Lysate mix), 5.6. Moreover, the pIC50 is 5.16 in [7] (cell material: Jurkat cells); less than 4.52 in assay [7] (cell material: Jurkat lysate); less than 4.52 in [7] (cell material: Lysate mix); 5.16 in assay [8] (cell material: Jurkat cells); less than 4.52 in assay [8] (cell material: Jurkat lysate); less than 4.52 in [8] (cell material: Lysate mix). Further, the negative-log IC50 (pIC50) is less than 4.52 in assay [9], 5.72 in assay [10] (cell material: Jurkat cells), less than 4.52 in assay [10] (cell material: Jurkat lysate) and less than 4.52 in [10] (cell material: Lysate mix).
